Assay results from US11191743B2, “Modulators of zinc activated cation channel” (Dignity Health, priority 2016, dated 2021).

How the values were obtained:
[1] = target: T1, ZACN (Homo sapiens, UniProt Q401N2); set-up: host or cells: HEK cells (exogenous expression); details: cited from earlier work
T1 sequence (Q401N2 26-412): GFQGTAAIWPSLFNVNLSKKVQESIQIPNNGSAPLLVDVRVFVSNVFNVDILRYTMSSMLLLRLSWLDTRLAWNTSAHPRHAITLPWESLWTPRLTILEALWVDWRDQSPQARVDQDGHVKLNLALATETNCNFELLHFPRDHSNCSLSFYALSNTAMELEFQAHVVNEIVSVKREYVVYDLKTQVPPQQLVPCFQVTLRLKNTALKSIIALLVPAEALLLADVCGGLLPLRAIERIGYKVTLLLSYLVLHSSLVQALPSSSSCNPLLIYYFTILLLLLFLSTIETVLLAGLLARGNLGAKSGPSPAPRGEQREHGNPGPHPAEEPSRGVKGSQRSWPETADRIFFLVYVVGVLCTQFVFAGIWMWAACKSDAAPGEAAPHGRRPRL

[2] = tested on: iTreg-induced immunosuppression of T cell division; assay type: cell-based, human
Description: Live Treg cells (CD4+CD25^high) and conventional T cells (Tconv cells) (CD4+CD25−) are obtained by immunomagnetic cell isolation kit from human iTreg. Tconv cells are labeled with CFSE (10 uM for 10 min). After washing, the labeled cells are distributed into multiple wells (1×10^5/well) in a round bottom 96-well plate with various numbers (2-fold serial dilutions from 1×10^5/well) of Treg cells in each well. The mixed cells (Treg and Tconv with different ratios) are co-cultured for 72 h in the presence of anti-CD3/CD28-coated sulfate latex beads. The intensity of CFSE fluorescence that declines upon division of the labeled cells is measured by flow cytometry.
As disclosed throughout the disclosure, and specifically in FIG. 7, Zinc and/or d-tubocurarine has an influence on iTreg suppression function. CFSE Immunosuppression Assay uses a cell permeable reactive fluorescent dye, CFSE. After entering cells, CFSE interacts with intracellular proteins, and permanently stain the cell. The fluorescence intensity will decrease along with the T cell division.

## COc1cc2c3cc1Oc1cc(ccc1O)C[C@@H]1c4c(cc(OC)c(O)c4Oc4ccc(cc4)C[C@@H]3N(C)CC2)CC[N+]1(C)C [d-tubocurarine]
[1]
  effect on spontaneous activity of ZACN in HEK cells: blocked
[2]
  influence on iTreg suppression function: inhibited the iTreg-induced immunosuppression of T cell division
